Assay results as given in patent US7491383B2, “Compositions having enhanced pharmacokinetic characteristics” (Allergan, Inc., priority 2001, dated 2009).
Where two headings read alike, the source gives them in different places.

Experiments:
monkeys (sedation) = tested on: monkeys (sedation)
Method: This study involved cross overs and a one-week wash out in between the administration of the various compounds.
As done in a previous experiments, the following method was followed: • 1. 6 trained monkeys were placed in chairs and allowed to acclimate for approximately 30 minutes. • 2. Individual monkeys were brought into the “testing room” where they were allowed to adjust to the new environment for approximately 2 minutes. […] Sedation scores were recorded on an observation sheet. • 3. The monkey were returned to the group of animals assigned to this study. • 4. 2 baseline readings were done at T-0.5 and 0 hour. After the 0 hour reading one drop of the test compound was administered to the right eye. • 5. Steps 2 & 3 were repeated at T=0.5, 1, 2, 3 and 4 hour. • 6. Animals were monitored until they recover from effects of the drug. • 7. […] Test Compound Administration:
The scoring was conducted for each animal for the different test compounds. The average results are shown on table 1.

[1] = tested on: Rabbit Intraocular Pressure; conditions: 20 μL of 0.2% on cornea, mean ± S.E.M., n = 8
From the text: In this study, the animals were placed into three groups consisting of a mix of age, size and sex.
One group of animals (both sexes) were used per screening study.
The following general procedure for administering the test compound employed in this study is presented below: • 1. Make sure that the 0.25% proparacaine Opthetic® mixture (topical local anesthetic), test compounds, and commercially available treats are available. • 2. Turn on the Digilab Modular One™ Pneuma Tonometer (pneumatonometer) [BioRad, Cambridge, Mass.]; it needs approximately 15 minutes to warm up. Turn on gas supply or air pump. • 3. Hold probe vertically with the point tip down and press “calibration check” for “zero”. • 4. Wipe the pneumatonometer probe with an alcohol swab, and inspect the tip membrane for holes. • 5. Set the external calibration device (air or water manometer) to 25 mm Hg, place the pneumatonometer probe in the calibration device to an ensure that it corresponded to 25±2 mm Hg. • 6. Obtain a rabbit. Make sure the recording data sheets are at hand. • 7. Gently restrain the rabbit via a commercial restrainer or a cotton towel. Measure the pupil diameter with the specialized ruler for each eye and record the values on the sheets provided. If the eyes are too dark to obtain a value by this method, a specialized penlight may be used. Obtain a pupil diameter measurement by shining the penlight on the cornea for one second. • 8. Slide the upper eyelid up the thumb and visually assess and score the degree of ocular surface redness. Record the value for each eye on the sheet provided. • 9. Put one drop of 0.25% proparacaine Opthetic® (50:50 mix of 0.5% proparacaine Opthetic®+Cellufresh®) on the surface of each eye. Wait one or more minutes for ophthetic to take effect. • 10. Place the pnematonometer tip on one eye at the site where the curvature of the cornea is greatest. Let the probe shank travel to the black line, not the red line. Persist until a stable reading with the standard deviation below 1.0 is obtained. Repeat the procedure for the contralateral eye. Record the data. (Note: If the animal is upset by the restraint, the reading will be artificially high and cannot be used. Use gentle restraint). • 11. At the end of the 0, 6, 24, 30, 48, 54, 72, 78 and 96 hour measurements, use an automatic pipette to apply 20 μL of the test compound to the surface of the cornea of one eye. After the 102 hour measurements, the eyes will be washed out with Refresh® and Prefrin®. • 12. Give the animal a treat and return the animal to its cage. • 13. Repeat steps 7 to 11 on the remaining animals in the group.
The following general procedure for measuring the effects of the test compound employed in this study is as follows: a reading is conducted at 0, 2, 4, 6, 24, 26, 28, 30, 48, 50, 52, 54, 72, 74, 76, 78, 96, 98, 100, and 102 hours. The pneumatonometer is calibrated before use with a manometer and the probe tip is wiped with an alcohol swab. One drop of 0.25% proparacaine Opthetic®, a corneal anesthetic, is placed on the cornea. Allow sufficient time (approximately 1 minute) for it to anesthetize the cornea before placing the probe on the eye. The eye is gently opened by the person doing the tonometer reading. The probe is placed on the cornea at the point of greatest curvature and a stable reading is obtained. The probe is held parallel to the floor and perpendicular to the line of the rabbit's sight. The reading is repeated until a reasonable reading can be obtained. The piston should be between the red and black lines or at the black line on the probe.

Intra Ocular Pressure = conditions: 0.131% Brimonidine and 0.126% linoleic acid
From the text: The treatment is an ion pair formulation of 0.131% Brimonidine and 0.126% linoleic acid.

With “tartrate of 5-bromo-6-(2-imidozolin-2-ylamino) quinoxaline [Brimonidine Tartrate, reference compound]” the “sedation compared with the other test compounds (in words)” value (monkeys (sedation); 0.2%, one drop right eye) was “more sedation than dosing with Brimonidine-linoleic acid”, the “SEDATION SCORE (average, scale S=0 to S=4)” value (shortened to “SEDATION SCORE”) (monkeys (sedation); 0.2%, one drop right eye, time 0 hr (baseline, before dosing)) was 0.8 and the “SEDATION SCORE” value (monkeys (sedation); 0.2%, one drop right eye, time 0.5 hr) was 0.8. For the same molecule, the “SEDATION SCORE” value (monkeys (sedation); 0.2%, one drop right eye, time 1 hr) was 1.7, the “SEDATION SCORE” value (monkeys (sedation); 0.2%, one drop right eye, time 2 hr) was 2.6 and the “SEDATION SCORE” value (monkeys (sedation); 0.2%, one drop right eye, time 3 hr) was 2.5. For the same molecule, the “SEDATION SCORE” value (monkeys (sedation); 0.2%, one drop right eye, time 4 hr) was 2.7, the “SEDATION SCORE” value (monkeys (sedation); 0.2%, one drop right eye, time −0.5 hr (baseline)) was 0.7 and the “observed state of the monkeys on average” value (monkeys (sedation); usually from the 2-hour time point to the end of observations) was “sleepy and inactive with heavy eyes”.
`Brc1c(NC2=NCCN2)ccc2nccnc12.CCCCCC=CCC=CCCCCCCCC(=O)O` [Brimonidine-linoleic acid] was tested, and the “INTRAOCULAR PRESSURE” value ([1]; time 0 hr (reading before first dose)) was 25.8 ± 1.2 mm Hg, the “INTRAOCULAR PRESSURE” value ([1]; time 2 hr) was 17.1 ± 1.0 mm Hg and the “INTRAOCULAR PRESSURE” value ([1]; time 4 hr) was 21.1 ± 1.0 mm Hg. For the same molecule, the “INTRAOCULAR PRESSURE” value ([1]; time 6 hr (dosed again after reading)) was 23.9 ± 1.0 mm Hg, the “INTRAOCULAR PRESSURE” value ([1]; time 24 hr (dosed after reading)) was 25.6 ± 0.5 mm Hg and the “INTRAOCULAR PRESSURE” value ([1]; time 26 hr) was 19.9 ± 0.6 mm Hg. For the same molecule, the “INTRAOCULAR PRESSURE” value ([1]; time 28 hr) was 22.9 ± 0.8 mm Hg, the “INTRAOCULAR PRESSURE” value ([1]; time 30 hr (dosed after reading)) was 23.0 ± 1.1 mm Hg and the “INTRAOCULAR PRESSURE” value ([1]; time 48 hr (dosed after reading)) was 26.5 ± 1.0 mm Hg. The “INTRAOCULAR PRESSURE” value ([1]; time 50 hr) was 20.4 ± 0.6 mm Hg, the “INTRAOCULAR PRESSURE” value ([1]; time 52 hr) was 23.4 ± 0.7 mm Hg and the “INTRAOCULAR PRESSURE” value ([1]; time 54 hr (dosed after reading)) was 24.1 ± 0.8 mm Hg. For the same molecule, the “INTRAOCULAR PRESSURE” value ([1]; time 72 hr (dosed after reading)) was 26.8 ± 0.9 mm Hg, the “INTRAOCULAR PRESSURE” value ([1]; time 74 hr) was 21.1 ± 0.8 mm Hg and the “INTRAOCULAR PRESSURE” value ([1]; time 76 hr) was 23.9 ± 1.1 mm Hg. The “INTRAOCULAR PRESSURE” value ([1]; time 78 hr (dosed after reading)) was 25.2 ± 0.9 mm Hg, the “INTRAOCULAR PRESSURE” value ([1]; time 96 hr (dosed after reading)) was 27.9 ± 1.1 mm Hg and the “INTRAOCULAR PRESSURE” value ([1]; time 98 hr) was 20.1 ± 1.3 mm Hg. The “INTRAOCULAR PRESSURE” value ([1]; time 100 hr) was 23.9 ± 0.7 mm Hg, the “INTRAOCULAR PRESSURE” value ([1]; time 102 hr) was 25.3 ± 1.6 mm Hg and the “percent change with time of Intra Ocular Pressure” value (“percent change with time” below) (Intra Ocular Pressure; 0 hr (administration of complex)) was 0.0 mm Hg. The “percent change with time” value (Intra Ocular Pressure; 1 hr after administration) was −10.4 mm Hg, the “percent change with time” value (Intra Ocular Pressure; 2 hr after administration) was −16.0 mm Hg and the “percent change with time” value (Intra Ocular Pressure; 4 hr after administration) was −9.5 mm Hg. For the same molecule, the “percent change with time” value (Intra Ocular Pressure; 6 hr after administration) was −9.4 mm Hg.
